# Key:
# [1] = molecular target: T1, kinase protein levels in MCF-7 cells (Homo sapiens, UniProt A0A024RBG1); test: TMT-labeled quantitative proteomics; assay type: cell-based; details: protein NUDT4B; MCF7; 1 µM; set2
# T1 construct: endogenous in cells; host or cells: MCF-7
# [2] = molecular target: T2, kinase protein levels in MCF-7 cells (Homo sapiens, UniProt P0DPI2); test: TMT-labeled quantitative proteomics; assay type: cell-based; details: protein GATD3; MCF7; 1 µM; set2
# T2 construct: endogenous in cells; host or cells: MCF-7
# T2 sequence (P0DPI2 42-268): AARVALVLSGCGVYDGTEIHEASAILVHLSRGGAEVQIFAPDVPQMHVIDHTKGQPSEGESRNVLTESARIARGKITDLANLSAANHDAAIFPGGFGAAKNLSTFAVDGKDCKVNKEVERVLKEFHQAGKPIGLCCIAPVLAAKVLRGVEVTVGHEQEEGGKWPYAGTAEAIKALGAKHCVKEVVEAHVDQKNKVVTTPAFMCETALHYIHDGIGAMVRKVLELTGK
# T1 sequence (A0A024RBG1 whole entry): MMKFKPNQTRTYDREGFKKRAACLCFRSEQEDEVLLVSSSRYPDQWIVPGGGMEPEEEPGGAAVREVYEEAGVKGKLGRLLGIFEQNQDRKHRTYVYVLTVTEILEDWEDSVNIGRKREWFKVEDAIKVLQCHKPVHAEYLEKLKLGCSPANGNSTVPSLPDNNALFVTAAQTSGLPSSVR
P.Value (compound/DMSO) [1],log2FC (compound/DMSO) [1],P.Value (compound/DMSO) [2],log2FC (compound/DMSO) [2],SMILES
0.2879,0.1111,0.4778,0.0741,CC(=O)N[C@H](C(=O)N1C[C@H](O)C[C@H]1C(=O)NCc1ccc(-c2scnc2C)cc1OCCOCCOCCOCCOCCC(=O)N1CCN(c2ccc(Nc3ncc(Cl)c(Nc4ccccc4C(N)=O)n3)cc2)CC1)C(C)(C)C [6-e]
0.01265,-0.4511,0.01692,-0.3786,CC(=O)N[C@H](C(=O)N1C[C@H](O)C[C@H]1C(=O)NCc1ccc(-c2scnc2C)cc1OCCOCCOCCOCCNC(=O)c1cc(Nc2cc(C3CC3)[nH]n2)nc(Nc2ccc(CC#N)cc2)n1)C(C)(C)C [5-b]

# — paper PMC11851430, “Workflow for E3 Ligase Ligand Validation for PROTAC Development” (ACS Chemical Biology, 2025)
